Measured values taken from US11285156B2, “Substituted piperazines as KRAS G12C inhibitors” (Amgen Inc., priority 2018, dated 2022).
Like-named read-outs stand apart in the source and are kept apart here.

Key:
[1] = test system: Phosphorylation of ERK1/2 in MIA PaCa-2 cells; experiment: Phospho-ERK1/2 MSD assay in MIA PaCa-2 cells; assay type: cell-based; settings: read-out: p-ERK IC50 (2 h, MiaPaCa-2; μM)
Outline: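 Phospho-ERK1/2 measured by MSD electrochemiluminescence kit in RIPA lysates of MIA PaCa-2 cells. Cells were treated with compound titrations for 2 or 4 h at 37 °C, 5% CO2, followed by a 10 min pulse of 10 ng/mL EGF.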

[2] = target: GDP-bound KRAS protein (aa 1-169), containing both G12C and C118A amino acid substitutions (Homo sapiens (Human), UniProt P01116, C118A/G12C); experiment: Coupled nucleotide exchange assay (SOS-mediated nucleotide exchange, AlphaScreen); assay type: biochemical; settings: 5 min compound pre-incubation; for IC50: read-out: Coupled exchange IC50 (5 min; μM)
[3] = test system: Phosphorylation of ERK1/2 in A549 cells; experiment: Phospho-ERK1/2 MSD assay in A549 cells; assay type: cell-based; settings: read-out: p-ERK IC50 (2 h, A549; μM)
Outline: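 MSD electrochemiluminescent read-out of phospho-ERK1/2 in RIPA lysates. Cells in RPMI 1640 with 10% FBS received titrated compound for 2 or 4 h, then 10 ng/mL EGF for 10 min before ice-cold PBS wash and lysis.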

[4] = Homo sapiens, MIA PaCa-2, 2 h, 2 h compound treatment, MIA PaCa-2 cells, EGF stimulated
[5] = Homo sapiens, A549, 2 h, 2 h compound treatment, A549 cells, EGF stimulated
[6] = 2 h compound treatment, MIA PaCa-2 cells, EGF stimulated

GDP-bound KRAS protein (aa 1-169), containing both G12C and C118A amino acid substitutions, sequence (P01116 other isoform, or with tags, fused parts or gaps G12C/C118A): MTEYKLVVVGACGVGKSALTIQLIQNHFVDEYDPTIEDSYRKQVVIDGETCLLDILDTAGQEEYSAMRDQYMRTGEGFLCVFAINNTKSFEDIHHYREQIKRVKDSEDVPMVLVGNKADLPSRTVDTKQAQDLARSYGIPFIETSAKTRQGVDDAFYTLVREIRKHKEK

C=CC(=O)N1C[C@H](C)N(c2nc(=O)n(-c3c(C(C)C)nc(C4CC4)nc3C(C)C)c3nc(-c4ccccc4F)c(Cl)cc23)C[C@H]1C [Example 168, 6-Chloro-1-(2-cyclopropyl-4,6-diisopropyl-pyrimidin-5-yl)-4-[(2S,5R)-2,5-dimethyl-4-prop-2-enoyl-piperazin-1-yl]-7-(2-fluorophenyl)pyrido[2,3-d]pyrimidin-2-one]
IC50 [1, 4]: 0.198 µM
IC50 [2]: 0.096 µM
IC50 [3, 5]: 4.34 µM

C=CC(=O)N1C[C@H](C)N(c2nc(=O)n(-c3c(C(C)C)ncnc3C3CC3)c3nc(-c4ccccc4F)c(Cl)cc23)C[C@H]1C [Example 108-1, 4-((2S,5R)-4-Acryloyl-2,5-dimethylpiperazin-1-yl)-6-chloro-1-(4-cyclopropyl-6-isopropylpyrimidin-5-yl)-7-(2-fluorophenyl)pyrido[2,3-d]pyrimidin-2(1H)-one]
IC50 [1, 6]: 0.039 µM
IC50 [2]: 0.009 µM
IC50 [3, 5]: > 7.5 µM

C=CC(=O)N1C[C@H](C)N(C2=NC(=O)CN(c3c(C)ccnc3C(C)C)c3nc(-c4ccccc4F)c(Cl)cc32)C[C@H]1C [Example 218, 5-((2S,5R)-4-Acryloyl-2,5-dimethylpiperazin-1-yl)-7-chloro-8-(2-fluorophenyl)-1-(2-isopropyl-4-methylpyridin-3-yl)-1,2-dihydro-3H-pyrido[2,3-e][1,4]diazepin-3-one]
IC50 ([1]; Homo sapiens, MIA PaCa-2, 2 h): 0.035 µM
IC50 [2]: 0.094 µM
IC50 ([3]; Homo sapiens, A549, 2 h): > 7.5 µM

C=CC(=O)N1C[C@H](C)N(c2nc(=O)n(-c3c(C)ccnc3C(C)C)c3nc(-c4cc(F)cc(F)c4N)c(Cl)cc23)C[C@H]1C (atropisomer, axis not shown; (M)) [Example 92-26, (M)-7-(2-Amino-3,5-difluoro-phenyl)-6-chloro-4-[(2S,5R)-2,5-dimethyl-4-prop-2-enoyl-piperazin-1-yl]-1-(2-isopropyl-4-methyl-3-pyridyl)pyrido [2,3-d]pyrimidin-2-one]
IC50 [1, 4]: 0.023 µM
IC50 [2]: 0.101 µM
IC50 [3, 5]: > 7.5 µM

C=CC(=O)N1CCN(c2nc(=O)n(-c3c(C)cc(N)nc3C(C)C)c3nc(-c4ccccc4F)c(Cl)cc23)[C@@H](C)C1 (single isomer, unassigned) [Example 183-2]
IC50 [1, 4]: 0.043 µM
IC50 [2]: 0.058 µM
IC50 [3, 5]: > 7.5 µM

C#Cc1nc(C)c(-n2c(=O)nc(N3C[C@@H](C)N(C(=O)C=C)C[C@@H]3C)c3cc(Cl)c(-c4ccccc4F)nc32)c(C(C)C)n1 (single isomer, unassigned) [Example 204]
IC50 [1, 4]: 0.091 µM
Coupled exchange IC50 (5 min; μM) [2]: 0.066 µM
IC50 [3, 5]: 3.01 µM

C=CC(=O)N1C[C@H](C)N(c2nc(=O)n(-c3c(N(C)C)ccnc3C(C)C)c3nc(-c4ccccc4F)c(Cl)cc23)C[C@H]1C [Example 55-51, 6-Chloro-1-[4-(dimethylamino)-2-isopropyl-3-pyridyl]-4-[(2S,5R)-2,5-dimethyl-4-prop-2-enoyl-piperazin-1-yl]-7-(2-fluorophenyl)pyrido[2,3-d]pyrimidin-2-one]
IC50 [1, 6]: 0.079 µM
IC50 [2]: 0.19 µM
IC50 [3, 5]: > 7.5 µM

C=CC(=O)N1C[C@H](C)N(c2nc(=O)n(-c3c(C(C)C)ccnc3C(C)C)c3nc(-c4ccccc4F)c(Cl)cc23)C[C@H]1C [Example 125-1, 4-((2S,5R)-4-Acryloyl-2,5-dimethylpiperazin-1-yl)-6-chloro-1-(2,4-diisopropylpyridin-3-yl)-7-(2-fluorophenyl)pyrido[2,3-d]pyrimidin-2(1H)-one]
IC50 [1, 6]: 0.055 µM
IC50 [2]: 0.028 µM
IC50 ([3]; 2 h compound treatment, A549 cells, EGF stimulated): > 7.5 µM

C=CC(=O)N1CCN(c2nc(=O)n(CC(C)(C)C)c3nc(-c4ccccc4F)c(Cl)cc23)CC1CC#N (stereo not drawn) [Example 145-1, 2-[4-[6-Chloro-1-(2,2-dimethylpropyl)-7-(2-fluorophenyl)-2-oxo-pyrido[2,3-d]pyrimidin-4-yl]-1-prop-2-enoyl-piperazin-2-yl]acetonitrile]
IC50 [1, 6]: 10 µM
IC50 [2]: 2.07 µM
IC50 [3, 5]: 5.75 µM

C=CC(=O)N1C[C@H](C)N(c2nc(=O)n(-c3c(C)ccnc3C(C)C)c3nc(-c4cc(Cl)ccc4F)c(F)cc23)C[C@H]1C (atropisomer, axis not shown; (M)) [Example 94-5, (M)-7-(5-chloro-2-fluoro-phenyl)-4-[(2S,5R)-2,5-dimethyl-4-prop-2-enoyl-piperazin-1-yl]-6-fluoro-1-(2-isopropyl-4-methyl-3-pyridyl)pyrido [2,3-d]pyrimidin-2-one]
IC50 [1, 4]: 0.265 µM
IC50 [2]: 0.708 µM
IC50 [3, 5]: > 7.5 µM
